Experimental findings from paper PMC5599584, “Kinetic adaptation of human Myo19 for active mitochondrial transport to growing filopodia tips” (Scientific Reports, 2017) are described below.

Experiment [1] has as its target T1, Myo19-3IQ (Homo sapiens, UniProt Q96H55).
T1 construct: with Calmodulin
It counts as biochemical. The following applies: no actin; 250 µM ATP (initial).

The target of experiment [2] is T2, Acto·Myo19-3IQ (Homo sapiens, UniProt Q96H55). The experiment in a line: biochemical.
The target of experiment [3] is T2, Acto·Myo19-3IQ. The experiment in a line: stopped-flow mant FRET, association kinetics. In kind it is binding. Also noted: with Calmodulin; Actin, alpha skeletal muscle (rabbit or chicken skeletal muscle F-actin). Conditions: KMg50 buffer pH 7.3, 25 °C; bound to F-actin; labelled compound.
Experiment [4] has as its target T1, Myo19-3IQ. The experiment in a line: stopped-flow mant FRET / single turnover. It counts as binding. Conditions: read-out: K 1T.
For experiment [5], the target named is F-actin (actin filaments from rabbit or chicken skeletal muscle) (rabbit or chicken) (UniProt P68135).

T2 sequence (Q96H55 whole entry, looked up): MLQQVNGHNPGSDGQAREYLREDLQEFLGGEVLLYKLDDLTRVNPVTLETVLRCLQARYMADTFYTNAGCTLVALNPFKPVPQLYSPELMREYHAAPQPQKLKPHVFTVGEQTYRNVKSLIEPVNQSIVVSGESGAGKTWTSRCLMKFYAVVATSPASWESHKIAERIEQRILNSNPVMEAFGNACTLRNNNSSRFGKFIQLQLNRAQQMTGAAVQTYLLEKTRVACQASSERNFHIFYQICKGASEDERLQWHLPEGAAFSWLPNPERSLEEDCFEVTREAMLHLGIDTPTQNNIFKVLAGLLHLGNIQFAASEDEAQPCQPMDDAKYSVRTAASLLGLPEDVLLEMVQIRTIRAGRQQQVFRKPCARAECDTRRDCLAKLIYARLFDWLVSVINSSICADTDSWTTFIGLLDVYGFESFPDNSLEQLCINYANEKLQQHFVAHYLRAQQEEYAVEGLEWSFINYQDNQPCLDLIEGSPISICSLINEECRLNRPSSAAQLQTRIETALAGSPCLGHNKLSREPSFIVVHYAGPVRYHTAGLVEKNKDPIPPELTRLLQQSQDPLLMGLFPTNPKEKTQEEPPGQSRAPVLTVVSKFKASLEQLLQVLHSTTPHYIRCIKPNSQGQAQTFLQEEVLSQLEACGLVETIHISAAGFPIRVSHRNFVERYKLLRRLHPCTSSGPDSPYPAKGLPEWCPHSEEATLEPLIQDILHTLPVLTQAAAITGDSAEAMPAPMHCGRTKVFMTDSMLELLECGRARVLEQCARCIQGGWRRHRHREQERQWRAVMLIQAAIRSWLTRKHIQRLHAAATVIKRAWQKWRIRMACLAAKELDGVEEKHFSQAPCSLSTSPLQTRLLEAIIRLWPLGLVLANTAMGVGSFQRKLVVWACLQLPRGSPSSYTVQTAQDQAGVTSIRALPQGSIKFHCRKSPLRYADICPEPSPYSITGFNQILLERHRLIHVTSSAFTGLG
T1 sequence (Q96H55 whole entry, looked up): as above

`Nc1ncnc2c1ncn2[C@@H]1O[C@H](COP(=O)(O)OP(=O)(O)OP(=O)(O)O)[C@@H](O)[C@H]1O` [ATP]: the “quenched-flow Pi burst; NADH-coupled ATPase” value on Myo19-3IQ [1] is given as “Myo19-3IQ (in the absence of actin) mixed with ATP yielded a Pi burst amplitude”. The molecule also showed a Kd on Acto·Myo19-3IQ [2] of 476 ± 116 µM.

On to `CNc1ccccc1C(=O)O[C@H]1C[C@H](n2cnc3c(N)ncnc32)O[C@@H]1COP(=O)(O)OP(=O)(O)OP(=O)(O)O` [mT], for which the “stopped-flow mant FRET, association kinetics” value on Acto·Myo19-3IQ [3] is on record as “mT bound similarly to Myo19-3IQ or Acto·Myo19-3IQ”. Besides, the Kd on Myo19-3IQ [4] is roughly 0.04 µM.

Molecule “Myo19-3IQ (human Myo19 motor domain with three IQ light chain-binding motifs, with its associated calmodulin light chain) (from UniProt P0DP23 1-149) (complex)” returned a K ATPase: actin concentration at the half maximal steady-state ATPase activity (NADH-coupled assay, 1-100 µM F-actin) in experiment [5] of 11.6 µM.
